One assay addresses T1, FLK-1R (Mus musculus, UniProt P35918).
T1 construct: expressed in transfected cells; host or cells: NIH3T3 C7#3
Put plainly: FLK-1 receptor ELISA in cells engineered to express Flk-1. Format: cell-based. The following applies: 50% inhibition of PTK activity over control. Here is the method:
(§1) The cellular/catalytic assays described herein are performed in an ELISA format. The general procedure is a follows: a compound is introduced to cells expressing the test kinase, either naturally or recombinantly, for some period of time after which, if the test kinase is a receptor, a ligand known to activate the receptor's activity is added. The cells are lysed and the lysate is transferred to the wells of an ELISA plate previously coated with a specific antibody recognizing the substrate of the enzymatic phosphorylation reaction. Non-substrate components of the cell lysate are washed away and the amount of phosphorylation on the substrate is detected with an antibody specifically recognizing phosphotyrosine compared with control cells that were not contacted with a test compound.
An ELISA assay is conducted to measure the kinase activity of the FLK-1 receptor and more specifically, the inhibition or activation of TK activity on the FLK-1 receptor. Specifically, the following assay can be conducted to measure kinase activity of the FLK-1 receptor in cells genetically engineered to express Flk-1.
The following reagents and supplies are used:
a. Corning 96-well ELISA plates (Corning Catalog No. 25805-96);
b. Cappel goat anti-rabbit IgG (catalog no. 55641);
c. PBS (Gibco Catalog No. 450-1300EB);
d. TBSW Buffer (50 mM Tris (pH 7.2), 150 mM NaCl and 0.1% Tween-20);
e. Ethanolamine stock (10% ethanolamine (pH 7.0), stored at 4° C.);
f. HNTG buffer (20 mM HEPES buffer (pH 7.5), 150 mM NaCl, 0.2% Triton X-100, and 10% glycerol);
g. EDTA (0.5 M (pH 7.0) as a 100×stock);
h. Sodium orthovanadate (0.5 M as a 100×stock);
i. Sodium pyrophosphate (0.2 M as a 100×stock);
j. NUNC 96 well V bottom polypropylene plates (Applied Scientific Catalog No. AS-72092);
k. NIH3T3 C7#3 Cells (FLK-1 expressing cells)
l. DMEM with 1×high glucose L-Glutamine (catalog No. 11965-050);
n. L-glutamine, Gibco (catalog no. 25030-016);
o. VEGF, PeproTech, Inc. (catalog no. 100-20) (kept as 1 μg/100 μL stock in Milli-Q dH2O and stored at −20° C.;
p. Affinity purified anti-FLK-1 antiserum;
q. UB40 monoclonal antibody specific for phosphotyrosine (see, Fendley, et al., 1990, Cancer Research 50:1550-1558);
r. EIA grade Goat anti-mouse IgG-POD (BioRad catalog no. 172-1011);
s. 2,2-azino-bis(3-ethylbenz-thiazoline-6-sulfonic acid (ABTS) solution (100 mM citric acid (anhydrous), 250 mM Na2HPO4 (pH 4.0), 0.5 mg/mL ABTS (Sigma catalog no. A-1888)), solution should be stored in dark at 4° C. until ready for use;
t. H2O2 (30% solution) (Fisher catalog no. H325);
u. ABTS/H2O2 (15 mL ABTS solution, 2 μL H2O2) prepared 5 minutes before use and left at room temperature;
v. 0.2 M HCl stock in H2O;
w. dimethylsulfoxide (100%)(Sigma Catalog No. D-8418); and
y. Trypsin-EDTA (Gibco BRL Catalog No. 25200-049).
The following protocol can be used for conducting the assay:
1. Coat Corning 96-well ELISA plates with 1.0 μg per well Cappel Anti-rabbit IgG antibody in 0.1 M Na2CO3 pH 9.6. Bring final volume to 150 μL per well. Coat plates overnight at 4° C. Plates can be kept up to two weeks when stored at 4° C.
2. Grow cells in Growth media(DMEM, supplemented with 2.0 mM L-Glutamine, 10% FBS) in suitable culture dishes until confluent at 37° C., 5% CO2.
3. Harvest cells by trypsinization and seed in Corning 25850 polystyrene 96-well round bottom cell plates, 25.000 cells/well in 200 μL of growth media.
4. Grow cells at least one day at 37° C., 5% CO2.
5. Wash cells with D-PBS 1×.
6. Add 200 μL/well of starvation media (DMEM, 2.0 mM 1-Glutamine, 0.1% FBS). Incubate overnight at 37° C., 5% CO2.
7. Dilute Compounds 1:20 in polypropylene 96 well plates using starvation media. Dilute dimethylsulfoxide 1:20 for use in control wells.
8. Remove starvation media from 96 well cell culture plates and add 162 μL of fresh starvation media to each well.
9. […]
A general note: ELISA stands for enzyme-linked immunosorbent assay.

Another assay has as its target PDGFR (Homo sapiens, UniProt P09619). Nature of the assay: PDGF-R ELISA (cellular kinase assay). The format is cell-based. The following applies: 50% inhibition of PTK activity over control. Here is the method: as §1
All cell culture media, glutamine, and fetal bovine serum can be purchased from Gibco Life Technologies (Grand Island, N.Y.) unless otherwise specified. All cells are grown in a humid atmosphere of 90-95% air and 5-10% CO2 at 37° C. All cell lines are routinely subcultured twice a week and are negative for mycoplasma as determined by the Mycotect method (Gibco).
For ELISA assays, cells (U1242, obtained from Joseph Schlessinger, NYU) are grown to 80-90% confluency in growth medium (MEM with 10% FBS, NEAA, 1 mM NaPyr and 2 mM GLN) and seeded in 96-well tissue culture plates in 0.5% serum at 25,000 to 30,000 cells per well. After overnight incubation in 0.5% serum-containing medium, cells are changed to serum-free medium and treated with test compound for 2 hr in a 5% CO2, 37° C. incubator. Cells are then stimulated with ligand for 5-10 minute followed by lysis with HNTG (20 mM Hepes, 150 mM NaCl, 10% glycerol, 5 mM EDTA, 5 mM Na3VO4, 0.2% Triton X-100, and 2 mM NaPyr). Cell lysates (0.5 mg/well in PBS) are transferred to ELISA plates previously coated with receptor-specific antibody and which had been blocked with 5% milk in TBST (50 mM Tris-HCl pH 7.2, 150 mM NaCl and 0.1% Triton X-100) at room temperature for 30 min. Lysates are incubated with shaking for 1 hour at room temperature. The plates are washed with TBST four times and then incubated with polyclonal anti-phosphotyrosine antibody at room temperature for 30 minutes. Excess anti-phosphotyrosine antibody is removed by rinsing the plate with TBST four times. Goat anti-rabbit IgG antibody is added to the ELISA plate for 30 min at room temperature followed by rinsing with TBST four more times. ABTS (100 mM citric acid, 250 mM Na2HPO4 and 0.5 mg/mL 2,2′-azino-bis(3-ethylbenzthiazoline-6-sulfonic acid)) plus H2O2 (1.2 mL 30% H2O2 to 10 mL ABTS) is added to the ELISA plates to start color development. Absorbance at 410 nm with a reference wavelength of 630 nm is recorded about 15 to 30 min after ABTS addition.

Sequence of PDGFR (P09619 33-1106): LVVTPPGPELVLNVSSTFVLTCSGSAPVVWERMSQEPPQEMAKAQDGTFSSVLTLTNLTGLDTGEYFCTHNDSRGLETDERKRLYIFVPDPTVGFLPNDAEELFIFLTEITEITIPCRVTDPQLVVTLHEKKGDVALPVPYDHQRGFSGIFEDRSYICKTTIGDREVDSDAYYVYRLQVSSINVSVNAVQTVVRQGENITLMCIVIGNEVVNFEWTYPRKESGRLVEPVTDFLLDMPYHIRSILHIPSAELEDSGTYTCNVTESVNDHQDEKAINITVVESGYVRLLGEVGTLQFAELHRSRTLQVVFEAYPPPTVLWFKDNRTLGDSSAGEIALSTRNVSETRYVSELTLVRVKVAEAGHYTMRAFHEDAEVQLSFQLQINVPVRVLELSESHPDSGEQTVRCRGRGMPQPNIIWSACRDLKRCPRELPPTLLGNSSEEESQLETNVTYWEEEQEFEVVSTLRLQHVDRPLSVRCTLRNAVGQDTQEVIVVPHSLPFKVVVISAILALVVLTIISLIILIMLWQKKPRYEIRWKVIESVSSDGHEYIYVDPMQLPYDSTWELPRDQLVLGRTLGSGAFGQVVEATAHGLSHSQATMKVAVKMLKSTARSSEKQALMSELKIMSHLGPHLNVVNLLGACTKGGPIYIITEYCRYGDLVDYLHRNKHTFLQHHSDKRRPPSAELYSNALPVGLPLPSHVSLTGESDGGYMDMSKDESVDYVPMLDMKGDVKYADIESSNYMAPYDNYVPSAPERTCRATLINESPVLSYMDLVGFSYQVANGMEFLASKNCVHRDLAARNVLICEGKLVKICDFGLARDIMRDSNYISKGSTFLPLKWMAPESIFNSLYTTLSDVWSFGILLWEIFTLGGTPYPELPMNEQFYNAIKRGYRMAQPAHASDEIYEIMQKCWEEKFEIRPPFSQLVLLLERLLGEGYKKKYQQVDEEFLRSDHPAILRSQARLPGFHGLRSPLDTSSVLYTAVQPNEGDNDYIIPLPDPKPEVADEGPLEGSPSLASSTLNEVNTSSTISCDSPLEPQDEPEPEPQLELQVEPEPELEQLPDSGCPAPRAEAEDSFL
T1 sequence (P35918 20-1345): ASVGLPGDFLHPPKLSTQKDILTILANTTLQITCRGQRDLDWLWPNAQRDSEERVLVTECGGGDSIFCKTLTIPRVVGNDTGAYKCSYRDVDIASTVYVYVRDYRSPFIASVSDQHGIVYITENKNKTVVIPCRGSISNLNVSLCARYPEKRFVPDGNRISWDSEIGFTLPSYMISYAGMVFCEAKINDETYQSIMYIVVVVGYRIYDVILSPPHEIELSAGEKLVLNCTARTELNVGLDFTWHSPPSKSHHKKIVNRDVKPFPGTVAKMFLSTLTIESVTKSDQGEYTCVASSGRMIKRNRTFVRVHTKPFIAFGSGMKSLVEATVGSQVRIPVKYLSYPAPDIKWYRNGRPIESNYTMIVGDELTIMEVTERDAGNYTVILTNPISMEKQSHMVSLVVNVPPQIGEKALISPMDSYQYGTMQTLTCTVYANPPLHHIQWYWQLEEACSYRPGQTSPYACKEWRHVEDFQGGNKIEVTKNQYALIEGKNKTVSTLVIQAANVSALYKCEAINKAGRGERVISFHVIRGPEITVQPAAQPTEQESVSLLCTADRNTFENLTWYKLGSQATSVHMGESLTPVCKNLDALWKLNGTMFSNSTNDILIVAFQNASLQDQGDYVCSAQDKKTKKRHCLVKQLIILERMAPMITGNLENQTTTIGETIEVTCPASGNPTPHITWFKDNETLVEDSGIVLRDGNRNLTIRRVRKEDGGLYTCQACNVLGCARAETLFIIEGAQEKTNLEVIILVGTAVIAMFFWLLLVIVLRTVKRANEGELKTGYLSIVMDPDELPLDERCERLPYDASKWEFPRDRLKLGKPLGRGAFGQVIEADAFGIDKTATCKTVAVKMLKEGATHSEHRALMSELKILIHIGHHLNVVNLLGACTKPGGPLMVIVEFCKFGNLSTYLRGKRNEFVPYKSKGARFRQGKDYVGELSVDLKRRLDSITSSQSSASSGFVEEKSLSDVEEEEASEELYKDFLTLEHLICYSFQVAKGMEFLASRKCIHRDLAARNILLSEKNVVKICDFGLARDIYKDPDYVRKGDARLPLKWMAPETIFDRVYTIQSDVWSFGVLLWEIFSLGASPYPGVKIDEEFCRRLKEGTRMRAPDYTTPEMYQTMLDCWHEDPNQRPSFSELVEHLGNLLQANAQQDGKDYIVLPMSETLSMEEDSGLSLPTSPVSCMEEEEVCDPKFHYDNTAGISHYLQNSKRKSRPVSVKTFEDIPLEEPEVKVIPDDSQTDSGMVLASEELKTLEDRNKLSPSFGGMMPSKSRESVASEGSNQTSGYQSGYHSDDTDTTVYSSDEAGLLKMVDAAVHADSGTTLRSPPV

As usually defined, the IC50 is the midpoint of a concentration-inhibition curve. As for `CCOC(=O)c1c(C)[nH]c(C=C2C(=O)Nc3ccc(Br)cc32)c1C` [3-(2,4-dimethyl-3-ethoxycarbonylpyrrol-5-methylidenyl)-5-bromo-2-indolinone], the half-maximal inhibitory concentration (IC50) on FLK-1R was determined as 4.2 µM. `COC(=O)CCc1c[nH]c(C=C2C(=O)Nc3ccccc32)c1C` [3-[4-(2-methoxycarbonylethyl-3-methylpyrrol-2-methylidenyl]-2-indolinone] displayed an IC50 at FLK-1R of 1.1 µM.

As to `CCOC(=O)c1[nH]c(C=C2C(=O)Nc3ccccc32)c(C(C)=O)c1C` [3-(4-acetyl-2-ethoxycarbonyl-3-methylpyrrol-5-methylidenyl)-2-indolinone], the IC50 on PDGFR and on FLK-1R was greater than 10 µM throughout. Compound `COC(=O)Cc1c(Cl)[nH]c(C=C2C(=O)Nc3ccccc32)c1C(=O)OC` [3-(2-chloro-4-methoxycarbonyl-3-methoxycarbonylmethylpyrrol-5-methylidenyl)-2-indolinone] returned a 50% inhibitory concentration (IC50) at FLK-1R greater than 50 µM. Consider `CCOC(=O)c1c[nH]c(C=C2C(=O)Nc3ccccc32)c1C` [3-(4-ethoxycarbonyl-3-methylpyrrol-2-methylidenyl)-2-indolinone], for which the half-inhibitory concentration (IC50) against PDGFR was greater than 100 µM; on FLK-1R, 0.2 µM. Compound `CCOC(=O)c1c(C)[nH]c(C=C2C(=O)Nc3ccc(NC(=O)c4ccc(C(=O)OC)cc4)cc32)c1C` [3-(2,4-dimethyl-3-ethoxycarbonylpyrrol-5-methylidenyl)-5-(4-methoxycarbonylbenzamido)-2-indolinone] had a half-maximal inhibitory concentration (IC50) on FLK-1R greater than 10 µM. As for `CCOC(=O)CCc1c(C(=O)OCC)[nH]c(C=C2C(=O)Nc3ccccc32)c1CC(=O)OCC` [3-[2-ethoxycarbonyl-3-(2-ethoxycarbonylethyl)-4-ethoxycarbonylmethyl)pyrrol-5-methylidenyl)-2-indolinone], the IC50 on PDGFR and at FLK-1R was greater than 10 µM in each case. Regarding `COC(=O)CCc1c[nH]c(C=C2C(=O)Nc3cc(OC)c(OC)cc32)c1C` [3-[4-(2-methoxycarbonylethyl)-3-methylpyrrol-2-methylidenyl]-5,6-dimethoxy-2-indolinone], the concentration for half-maximal inhibition (IC50) against PDGFR was 22.3 µM; against FLK-1R, 36 µM. Compound `CC(=O)c1[nH]c(C=C2C(=O)Nc3ccccc32)c(C)c1C` [3-(2-acetyl-3,4-dimethylpyrrol-5-methylidenyl)-2-indolinone] registered an IC50 at FLK-1R of 23.8 µM. Take `Cc1c[nH]c(C=C2C(=O)Nc3ccccc32)c1CCC(=O)O` [3-[3-(2-carboxyethyl-4-methylpyrrol-2-methylidenyl]-2-indolinone]: on FLK-1R, the concentration for half-maximal inhibition (IC50) came to 0.4 µM.

The values are drawn from patent publication US6486185B1, “3-heteroarylidene-2-indolinone protein kinase inhibitors” (Sugen, Inc., priority 1997, dated 2002).
